The subject of the data set is CCRIS mutagenicity, Ames/micronucleus/aberration tests. The experiment in a line: CCRIS mutagenicity studies.
Where [1] appears, read: Test System: AMES SALMONELLA TYPHIMURIUM, Strain/Indicator: TA98, Metabolic Activation: NONE, Method: PREINCUBATION
The mark [2] stands for this setting: Test System: AMES SALMONELLA TYPHIMURIUM, Strain/Indicator: TA100, Metabolic Activation: NONE, Method: PREINCUBATION
Where [3] appears, read: Test System: AMES SALMONELLA TYPHIMURIUM, Strain/Indicator: TA100, Metabolic Activation: RAT, LIVER, S-9, AROCLOR 1254, Method: PREINCUBATION
The mark [4] stands for this setting: Test System: AMES SALMONELLA TYPHIMURIUM, Strain/Indicator: TA98, Metabolic Activation: RAT, LIVER, S-9, AROCLOR 1254, Method: STANDARD PLATE.
[5] abbreviates: Test System: AMES SALMONELLA TYPHIMURIUM, Strain/Indicator: TA98, Metabolic Activation: NONE, Method: STANDARD PLATE.
The mark [6] stands for this setting: Test System: AMES SALMONELLA TYPHIMURIUM, Strain/Indicator: TA100, Metabolic Activation: NONE, Method: STANDARD PLATE.
The mark [7] stands for this setting: Test System: AMES SALMONELLA TYPHIMURIUM, Strain/Indicator: TA100, Metabolic Activation: RAT, LIVER, S-9, AROCLOR 1254, Method: STANDARD PLATE.

Active and inactive are the calls of the source. The rule behind the calls is not given here.

As to `O=[N+]([O-])c1ccccc1CO`, the mutagenic call under setting [1] is “inactive; negative”, the mutagenic call under setting [2] was “inactive; negative” and the mutagenic call under setting [3] is “inactive; negative”.
For the compound `CC(=O)Nc1ccc2ccc3c(O)ccc4ccc1c2c43`, the mutagenic call runs as follows: (Test System: AMES SALMONELLA TYPHIMURIUM, Strain/Indicator: TA98(1,8-DNP6), Metabolic Activation: NONE, Method: STANDARD PLATE) “inactive; negative”; (Test System: AMES SALMONELLA TYPHIMURIUM, Strain/Indicator: TA98(1,8-DNP6), Metabolic Activation: RAT, LIVER, S-9, AROCLOR 1254, Method: STANDARD PLATE) “inactive; negative”; under setting [4], “active; positive”; (Test System: AMES SALMONELLA TYPHIMURIUM, Strain/Indicator: YG1024, Metabolic Activation: NONE, Method: STANDARD PLATE) “inactive; negative”; (Test System: AMES SALMONELLA TYPHIMURIUM, Strain/Indicator: YG1024, Metabolic Activation: RAT, LIVER, S-9, AROCLOR 1254, Method: STANDARD PLATE) “active; positive”.
With `c1ccc([C@H]2N[C@H]2c2ccccc2)cc1`, the mutagenic call under setting [5] was “inactive; negative”; the mutagenic call under setting [6] was “active; positive”; the mutagenic call (Test System: AMES SALMONELLA TYPHIMURIUM, Strain/Indicator: TA1537, Metabolic Activation: NONE, Method: STANDARD PLATE) is “inactive; negative”.
As to `C=CCN1C2c3ccccc3-c3ccccc3C21` (configuration not stated), the mutagenic call runs as follows: under setting [6], “active; positive”; (Test System: CHINESE HAMSTER V-79, Strain/Indicator: V-79/6-THIOGUANINE, Metabolic Activation: NONE, Method: STANDARD PLATE) “active; positive”.
Consider `COC(=O)[C@H]1CS[C@H]2C(Cl)=C(Cl)C(=O)N12`, for which, under setting [6], the mutagenic call was “active; positive”.
In the case of `FCC1CO1` (configuration not stated), the mutagenic call is “inactive; negative” (Test System: AMES SALMONELLA TYPHIMURIUM, Strain/Indicator: TA98, Metabolic Activation: HAMSTER, LIVER, S-9, AROCLOR 1254 (30%), Method: PREINCUBATION); “inactive; negative” under setting [1]; “inactive; negative” (Test System: AMES SALMONELLA TYPHIMURIUM, Strain/Indicator: TA98, Metabolic Activation: RAT, LIVER, S-9, AROCLOR 1254 (30%), Method: PREINCUBATION); “active; positive” (Test System: AMES SALMONELLA TYPHIMURIUM, Strain/Indicator: TA100, Metabolic Activation: HAMSTER, LIVER, S-9, AROCLOR 1254 (30%), Method: PREINCUBATION); “active; positive” under setting [2]; “active; positive” (Test System: AMES SALMONELLA TYPHIMURIUM, Strain/Indicator: TA100, Metabolic Activation: RAT, LIVER, S-9, AROCLOR 1254 (30%), Method: PREINCUBATION).
Take `CCn1c(N)nc2c3ncc(C)nc3ccc21`: the mutagenic call (Test System: AMES SALMONELLA TYPHIMURIUM, Strain/Indicator: TA98, Metabolic Activation: RAT, LIVER, S-9, AROCLOR 1254, Method: PREINCUBATION) is “active; positive”.
On to `O.O.O.O.O.O.[Cl-].[Cl-].[Co+2]`, for which the mutagenic call is “active; positive (structural and ploidy changes)” (End Point: IN VIVO CHROMOSOMAL ABERRATIONS, Test System: BONE MARROW CELLS, Species: MOUSE, Strain/Sex: SWISS ALBINO/MALE, Route: ORAL); “inactive; negative” (Test System: CHINESE HAMSTER V-79, Strain/Indicator: SP5 V-79 (HPRT)/6-THIOGUANINE, Metabolic Activation: NONE, Method: STANDARD PLATE); “active; positive” (Test System: CHINESE HAMSTER V-79, Strain/Indicator: SPD8 V-79 (HPRT)/6-THIOGUANINE, Metabolic Activation: NONE, Method: STANDARD PLATE).
For the compound `CC(=O)Nc1ccc(Oc2ccc(NC(C)=O)cc2)cc1`, the mutagenic call reads like this: under setting [5], “inactive; negative”; (Test System: AMES SALMONELLA TYPHIMURIUM, Strain/Indicator: TA98, Metabolic Activation: RAT, LIVER, S-9, PCB, Method: STANDARD PLATE) “inactive; negative”; under setting [6], “inactive; negative”; (Test System: AMES SALMONELLA TYPHIMURIUM, Strain/Indicator: TA100, Metabolic Activation: RAT, LIVER, S-9, PCB, Method: STANDARD PLATE) “inactive; negative”.
For `CO[C@@H]1[C@H](O)C[C@@H](O[C@@H]2C[C@H](Oc3cc4cc5c(c(O)c4c(O)c3C)C(=O)[C@@H](O[C@H]3C[C@@H](O[C@H]4C[C@@H](O[C@H]6C[C@](C)(O)[C@@H](OC(C)=O)[C@H](C)O6)[C@H](O)[C@@H](C)O4)[C@H](O)[C@@H](C)O3)[C@H]([C@H](OC)C(=O)[C@@H](O)[C@@H](C)O)C5)O[C@H](C)[C@@H]2OC(C)=O)O[C@@H]1C`, the mutagenic call was “inactive; negative” under setting [5]; “inactive; negative” under setting [6]; “active; positive” (Test System: CHINESE HAMSTER OVARY, Strain/Indicator: CHO (HGPRT)/6-THIOGUANINE, Metabolic Activation: NONE, Method: PREINCUBATION); “inactive; negative” (Test System: E. COLI, Strain/Indicator: WP2 (HCR), Metabolic Activation: NONE, Method: STANDARD PLATE).
With `CC1(C)CC(C(=O)NC(CO)C(O)CO)C(C)(C)N1[O]` (configuration not stated), the mutagenic call (Test System: AMES SALMONELLA TYPHIMURIUM, Strain/Indicator: TA102, Metabolic Activation: NONE, Method: STANDARD PLATE) is “inactive; negative”; the mutagenic call (Test System: AMES SALMONELLA TYPHIMURIUM, Strain/Indicator: TA102, Metabolic Activation: XANTHINE OXIDASE, Method: STANDARD PLATE) is “inactive; negative”; the mutagenic call (Test System: AMES SALMONELLA TYPHIMURIUM, Strain/Indicator: TA104, Metabolic Activation: NONE, Method: STANDARD PLATE) is “inactive; negative”; the mutagenic call (Test System: AMES SALMONELLA TYPHIMURIUM, Strain/Indicator: TA104, Metabolic Activation: XANTHINE OXIDASE, Method: STANDARD PLATE) was “inactive; negative”; the mutagenic call (Test System: CHO, Strain/Indicator: CHO/6-THIOGUANINE, Metabolic Activation: NONE, Method: STANDARD PLATE) is “inactive; negative”; the mutagenic call (Test System: CHO, Strain/Indicator: CHO/6-THIOGUANINE, Metabolic Activation: RAT, LIVER, S-9, AROCLOR 1254, Method: STANDARD PLATE) was “inactive; negative”. For the same compound, the mutagenic call runs as follows: (Test System: CHO, Strain/Indicator: CHO/OUABAIN, Metabolic Activation: NONE, Method: STANDARD PLATE) “inactive; negative”; (Test System: CHO, Strain/Indicator: CHO/OUABAIN, Metabolic Activation: RAT, LIVER, S-9, AROCLOR 1254, Method: STANDARD PLATE) “inactive; negative”.
As for `CC(Br)c1ccccc1` (configuration not stated), the mutagenic call reads like this: under setting [5], “inactive; negative”; under setting [6], “inactive; negative”.
For `OCc1ccnc2ccccc12`, the mutagenic call (Test System: AMES SALMONELLA TYPHIMURIUM, Strain/Indicator: TA100, Metabolic Activation: RAT, LIVER, S-9, Method: PREINCUBATION) was “inactive; negative”.
`CCOCC1CO1` (configuration not stated): the mutagenic call was “active; positive” under setting [6]; “active; positive” under setting [7]; “active; positive” (Test System: AMES SALMONELLA TYPHIMURIUM, Strain/Indicator: TA1535, Metabolic Activation: NONE, Method: STANDARD PLATE); “active; positive” (Test System: AMES SALMONELLA TYPHIMURIUM, Strain/Indicator: TA1535, Metabolic Activation: RAT, LIVER, S-9, AROCLOR 1254, Method: STANDARD PLATE).
Consider `O=C(O)/C=C/c1cccc([N+](=O)[O-])c1`, for which the mutagenic call is, setting by setting: under setting [1], “inactive; negative”; under setting [5], “inactive; negative”; under setting [4], “inactive; negative”; under setting [2], “active; positive”; under setting [6], “active; positive”; under setting [3], “active; positive”. The mutagenic call under setting [7] was “inactive; negative”; the mutagenic call (Test System: AMES SALMONELLA TYPHIMURIUM, Strain/Indicator: TA1535, Metabolic Activation: NONE, Method: PREINCUBATION) is “active; positive”; the mutagenic call (Test System: AMES SALMONELLA TYPHIMURIUM, Strain/Indicator: TA1537, Metabolic Activation: NONE, Method: PREINCUBATION) was “inactive; negative”; the mutagenic call (Test System: AMES SALMONELLA TYPHIMURIUM, Strain/Indicator: TA1538, Metabolic Activation: NONE, Method: PREINCUBATION) was “inactive; negative”.

For the origin of these results see PubChem BioAssay AID1259407 (Chemical Carcinogenesis Research Information System (CCRIS), 2018).
